In the supplement of paper PMC11061612:

Tests used:
Assay in all cases: Bliss excess, mean over the matrix (fraction); higher = more synergy
8-MG-BA (Glioblastoma) = system: 8-MG-BA (Glioblastoma)
Method in brief: (§1)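 Cell lines grown in DMEM/F12 or RPMI with 10% FBS were plated in 1536-well plates and held 24 hours at 37°C, 5% CO2 before 72 hours of exposure to two-drug dose matrices, with DMSO typically at 0.2%. CellTiter-Glo 2.0 luminescence gave viability, which was converted to inhibition. Vehicle wells were set to 0 and blank wells to 1. Combination Emax is the second-highest inhibition in the matrix, and Bliss excess is the observed combination effect minus the expected EA + EB − EA·EB, where EA and EB are the single-agent effects.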

[1] = system: COLO-824 (Breast Carcinoma)
Method in brief: as §1

GI-ME-N (Neuroblastoma) = system: GI-ME-N (Neuroblastoma)
Method in brief: as §1

[2] = system: HCC1954 (Breast Carcinoma)
Method in brief: as §1

Hs-445 (Non-Cancerous) = system: Hs-445 (Non-Cancerous)
Method in brief: as §1

[3] = system: JSC-1 (B-Cell Non-Hodgkin's Lymphoma)
Method in brief: as §1

[4] = system: MDST8 (Colorectal Carcinoma)
Method in brief: as §1

[5] = system: NCI-H1693 (Lung Adenocarcinoma)
Method in brief: as §1

[6] = system: NCI-H2141 (Small Cell Lung Carcinoma)
Method in brief: as §1

NCI-H2591 (Mesothelioma) = system: NCI-H2591 (Mesothelioma)
Method in brief: as §1

[7] = system: OS-RC-2 (Kidney Carcinoma)
Method in brief: as §1

[8] = system: SISO (Cervical Carcinoma)
Method in brief: as §1

[9] = system: TT2609-C02 (Thyroid Gland Carcinoma)
Method in brief: as §1

[10] = system: CAPAN-2 (Pancreatic Carcinoma)
Method in brief: as §1

FU97 (Gastric Carcinoma) = system: FU97 (Gastric Carcinoma)
Method in brief: as §1

[11] = system: KARPAS-422 (B-Cell Non-Hodgkin's Lymphoma)
Method in brief: as §1

[12] = system: NCI-H2066 (Squamous Cell Lung Carcinoma)
Method in brief: as §1

[13] = system: ONS-76 (Other Solid Carcinomas)
Method in brief: as §1

[14] = system: PANC-10-05 (Pancreatic Carcinoma)
Method in brief: as §1

IGR-37 (Melanoma) = system: IGR-37 (Melanoma)
Method in brief: as §1

SMILES	Bliss excess (8-MG-BA (Glioblastoma))	Bliss excess [1]	Bliss excess (GI-ME-N (Neuroblastoma))	Bliss excess [2]	Bliss excess (Hs-445 (Non-Cancerous))	Bliss excess [3]	Bliss excess [4]	Bliss excess [5]	Bliss excess [6]	Bliss excess (NCI-H2591 (Mesothelioma))	Bliss excess [7]	Bliss excess [8]	Bliss excess [9]	Bliss excess [10]	Bliss excess (FU97 (Gastric Carcinoma))	Bliss excess [11]	Bliss excess [12]	Bliss excess [13]	Bliss excess [14]	Bliss excess (IGR-37 (Melanoma))
COc1nnc2ccc(N3CCC(c4ccc(OCCN5CCN(C)C(=O)[C@H]5C)cc4)CC3)nn12 [AZD5153] + CN(CC[C@H](CSC1=CC=CC=C1)NC2=C(C=C(C=C2)S(=O)(=O)NC(=O)C3=CC=C(C=C3)N4CCC(CC4)[C@H](C5=CC=CC=C5C6=CC=C(C=C6)Cl)O)S(=O)(=O)C(F)(F)F)CCO [AZD4320] (first compound max 1 µM, 7x7, partner max 1 µM)	0.002	0.057	0.0077	-0.0119	0.085	-0.0243	0.0929	0.04	0.048	0.0088	0.0115	-0.0052	0.0257							
Cc1c2c(nn1C)CSCc1cc(n(C)n1)CSc1cc(c3ccccc3c1)OCCCc1c(C(=O)O)n(C)c3c-2c(Cl)ccc13 [AZD5991] + C1CN(CCC1(C(=O)N[C@@H](CCO)C2=CC=C(C=C2)Cl)N)C3=NC=NC4=C3C=CN4 [Capivasertib] (first compound max 1 µM, 7x7, partner max 3 µM)	0.0821	0.01	-0.0245	0.0559	-0.0545	-0.0085	-0.0102	-0.0294	0.0003	-0.0306	-0.0596	-0.0021	-0.019	0.0085	-0.0174	-0.132	-0.0197	-0.0003	0.0422	
Cc1c2c(nn1C)CSCc1cc(n(C)n1)CSc1cc(c3ccccc3c1)OCCCc1c(C(=O)O)n(C)c3c-2c(Cl)ccc13 [AZD5991] + CCN(CCO)CCCOc1ccc2c(Nc3cc(CC(=O)Nc4cccc(F)c4)[nH]n3)ncnc2c1 [AZD2811] (first compound max 1 µM, 7x7, partner max 1 µM)	0.114	-0.0156	0.0116	0.105	0.0869	0.123	0.0586	0.0102	0.0657	0.0208	-0.0634	0.108	0.0119	-0.0133		0.0918	0.0154	0.0619	-0.0242	0.0533
Cc1c2c(nn1C)CSCc1cc(n(C)n1)CSc1cc(c3ccccc3c1)OCCCc1c(C(=O)O)n(C)c3c-2c(Cl)ccc13 [AZD5991] + C[C@@H]1COCCN1C2=NC(=NC(=C2)C3(CC3)[S@](=N)(=O)C)C4=C5C=CNC5=NC=C4 [AZD6738] (first compound max 1 µM, 7x7, partner max 10 µM)	0.0326	-0.009	0.0481	0.0518	-0.0064	0.018		0.0316	0.0675	0.023	0.0211	0.0628	0.0043	0.0543	-0.0064	-0.0209	0.0148	-0.0017	0.0415	0.124
CC(=O)c1c(C)c2cnc(Nc3ccc(N4CCNCC4)cn3)nc2n(C2CCCC2)c1=O [Palbociclib] + CN(CC[C@H](CSC1=CC=CC=C1)NC2=C(C=C(C=C2)S(=O)(=O)NC(=O)C3=CC=C(C=C3)N4CCC(CC4)[C@H](C5=CC=CC=C5C6=CC=C(C=C6)Cl)O)S(=O)(=O)C(F)(F)F)CCO [AZD4320] (first compound max 10 µM, 7x7, partner max 1 µM)	-0.001	0.0326	-0.0771	-0.0722	0.0465	-0.0418	-0.0168	-0.0313	-0.067	-0.0845	-0.0999	-0.0669	-0.0615							
CCc1c2c(nc3ccc(O)cc13)-c1cc3c(c(=O)n1C2)COC(=O)[C@]3(O)CC [SN-38] + O=C(c1cc(Cc2n[nH]c(=O)c3ccccc23)ccc1F)N1CCN(C(=O)C2CC2)CC1 [Olaparib] (first compound max 0.3 µM, 7x7, partner max 10 µM)	0.0671		0.0672		0.0811	-0.0044	-0.0419		0.0521	-0.0219		0.0546		-0.0382	-0.0043	0.0276	-0.0477	0.05	0.0059	0.0226
C[C@@H](c1ccc2nccn2c1)n1nnc2ncc(-c3cnn(C)c3)nc21 [Savolitinib] + CN(CC[C@H](CSC1=CC=CC=C1)NC2=C(C=C(C=C2)S(=O)(=O)NC(=O)C3=CC=C(C=C3)N4CCC(CC4)[C@H](C5=CC=CC=C5C6=CC=C(C=C6)Cl)O)S(=O)(=O)C(F)(F)F)CCO [AZD4320] (first compound max 1 µM, 7x7, partner max 1 µM)	-0.0399	-0.0101	-0.0699	-0.0198	-0.0452	-0.0221	-0.0668	-0.0491	-0.0695	-0.0714	-0.0618	-0.045	-0.103							
CC(=O)Nc1cccc(-n2c(=O)n(C3CC3)c(=O)c3c(Nc4ccc(I)cc4F)n(C)c(=O)c(C)c32)c1 [Trametinib] + Cc1nc(-c2cn3c(n2)-c2ccc(-c4cnn(C(C)(C)C(N)=O)c4)cc2OCC3)n(C(C)C)n1 [Taselisib] (first compound max 1 µM, 7x7, partner max 10 µM)	0.143	0.21	0.0954	0.0455	0.119	0.218	-0.0104	0.0507	-0.0299	0.0206	-0.0198	0.0809	0.0909	0.117		0.0204	0.0386	0.0124	0.0968	0.0677
